Results reported in the supplement of paper PMC10307832.

Columns and labels:
Assay in all cases: relative viability (nuclei count vs DMSO), 5 days (fraction); higher = more cells survive
Doramapimod + Linsitinib = compound: Cc1ccc(-n2nc(C(C)(C)C)cc2NC(=O)Nc2ccc(OCCN3CCOCC3)c3ccccc23)cc1 [Doramapimod] + C[C@]1(O)C[C@@H](c2nc(-c3ccc4ccc(-c5ccccc5)nc4c3)c3c(N)nccn32)C1 [Linsitinib] (partner 1 µM)
Procedure, shortened: (§1)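 Nuclei were stained with Hoechst during a one-step fixation (final 0.05% Triton X-100, 1% formaldehyde, 1 ug/ml Hoechst) carried out 5 days after dosing, then counted on 4× images. The cells, lung cancer lines in 1536-well plates, had been dosed by pin tool the day after seeding with one drug alone or a fixed anchor-drug dose plus five library-drug doses (not always all listed) in √10 steps. Relative viability is the nuclei count in treated wells divided by that in vehicle wells, and each value is the median of duplicate plates.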

RAF265 + OSI-027 = compound: Cn1c(Nc2ccc(C(F)(F)F)cc2)nc2cc(Oc3ccnc(-c4ncc(C(F)(F)F)[nH]4)c3)ccc21 [RAF265] + COc1cccc2cc(-c3nc([C@H]4CC[C@H](C(=O)O)CC4)n4ncnc(N)c34)[nH]c12 [OSI-027] (partner 0.5 µM)
Procedure, shortened: as §1

RAF265 + Pemetrexed = compound: Cn1c(Nc2ccc(C(F)(F)F)cc2)nc2cc(Oc3ccnc(-c4ncc(C(F)(F)F)[nH]4)c3)ccc21 [RAF265] + Nc1nc2[nH]cc(CCc3ccc(C(=O)N[C@@H](CCC(=O)O)C(=O)O)cc3)c2c(=O)[nH]1 [Pemetrexed] (partner 0.2 µM)
Procedure, shortened: as §1

RAF265 + Luminespib = compound: Cn1c(Nc2ccc(C(F)(F)F)cc2)nc2cc(Oc3ccnc(-c4ncc(C(F)(F)F)[nH]4)c3)ccc21 [RAF265] + CCNC(=O)c1noc(-c2cc(C(C)C)c(O)cc2O)c1-c1ccc(CN2CCOCC2)cc1 [Luminespib] (partner 0.01 µM)
Procedure, shortened: as §1

Cell Line	relative viability (Doramapimod + Linsitinib; first compound 0.02 µM)	relative viability (Doramapimod + Linsitinib; first compound 0.06325 µM)	relative viability (Doramapimod + Linsitinib; first compound 0.2 µM)	relative viability (Doramapimod + Linsitinib; first compound 0.6325 µM)	relative viability (Doramapimod + Linsitinib; first compound 2 µM)	relative viability (RAF265 + OSI-027; first compound 0.01 µM)	relative viability (RAF265 + OSI-027; first compound 0.03162 µM)	relative viability (RAF265 + OSI-027; first compound 0.1 µM)	relative viability (RAF265 + OSI-027; first compound 0.3162 µM)	relative viability (RAF265 + OSI-027; first compound 1 µM)	relative viability (RAF265 + Pemetrexed; first compound 0.01 µM)	relative viability (RAF265 + Pemetrexed; first compound 0.03162 µM)	relative viability (RAF265 + Pemetrexed; first compound 0.1 µM)	relative viability (RAF265 + Pemetrexed; first compound 0.3162 µM)	relative viability (RAF265 + Pemetrexed; first compound 1 µM)	relative viability (RAF265 + Luminespib; first compound 0.01 µM)	relative viability (RAF265 + Luminespib; first compound 0.03162 µM)	relative viability (RAF265 + Luminespib; first compound 0.1 µM)	relative viability (RAF265 + Luminespib; first compound 0.3162 µM)	relative viability (RAF265 + Luminespib; first compound 1 µM)
NCI-H2347	1.04	0.974	0.96	1.01	0.846	0.418	0.341	0.44	0.35	0.278	0.392	0.371	0.406	0.446	0.351	0.445	0.775	0.849	0.337	0.234
NCI-H2405	0.973	0.869	0.933	1.27	0.852	0.601	0.626	0.621	0.611	0.366	1.14	0.922	0.91	0.662	0.516	0.638	0.812	0.722	0.476	0.548
NCI-H3122	1.04	1.07	1.04	0.971	0.988	0.971	1.1	0.948		0.42	0.197	0.21	0.198	0.209	0.195	0.0828	0.0692	0.0932	0.0953	0.0538
PC-3 [JPC-3]	1.07	0.987	0.987	1.06	0.998	0.84	0.655	0.746		0.567	1.17	1.11	1.24	0.42	0.621	0.667	0.654	0.713		0.386
PC-14	1.01	1.03	0.981	0.931	0.9	0.813	0.734	0.787		0.48	0.115	0.138	0.144		0.158	0.163	0.128	0.248		0.139
RERF-LC-KJ	0.871	0.912	0.899	0.952	0.864	0.548	0.52	0.423	0.349	0.381	0.504	0.482	0.503	0.46	0.51	1.34	1.22	1.08	0.763	0.713
SK-LU-1	1.07	1.02	1.2	1.16	0.941	0.349	0.254	0.224	0.232	0.193	0.893	0.838	0.711	0.544	0.435	0.203	0.182	0.177	0.185	0.176
SK-MES-1	1.08	1	0.996	1.09	0.909	0.544	0.355	0.186	0.223	0.187	0.941	0.698	0.48	0.366	0.326	0.726	0.414	0.33	0.228	0.191
SW 1573	0.722	0.74	0.8	0.739	0.736	0.697	0.521	0.418	0.347	0.249	0.872	0.833	0.753	0.6	0.634	0.571	0.179	0.161	0.131	0.149
